For data set [1], the system named is ARPE-19 cells. In words: sensitivity to 5-FU, growth monitored with resazurin. On the procedure: (§1) The newly selected cell types were then screened for r sensitivity to 5-fluorouracil (5-FU). This screening was accomplished by plating the cell lines in 48 well plates, and after overnight attachment adding varying concentrations of 5-FU from 0-500 μM. The growth of the cells was then monitored at 1-2 day intervals with the fluorescent substrate resazurin.

Data set [2] concerns A2058. On the procedure:
as §1

The test system of data set [3] is K3.4. In words: 5FC and 5FU dose-response in BDNF-expressing CRL 5803 line and CD transfectants. The data set is classed as cell-based. The conditions noted are these: Homo sapiens. As to the method:
(§2) CRL 5803 cells expressing BDNF and CD: The CRL 5803 cell line was transfected with BDNF and clones expressing BDNF were selected. These selected clones were expanded to provide cells for transfections with cytosine deaminase plasmid (CX014). Four CD gene transfection studies were performed with three different BDNF-expressing cell lines. For each cell line at least 24 resistant clones were picked and screened for sensitivity to 100 μM 5FC. The clones with the lowest survival in 5FC (as percent of control wells) were then expanded for dose-response studies with 5FC and 5FU. Cytotoxicity of 5FC was used as an indication of CD gene expression, and this screen provided 6-9 clones per transfection. The IC50 for 5FU indicated the maximum potential cytotoxicity of the prodrug, 5FC, in cells expressing sufficient levels of CD gene and protein.

Data set [4] has as its system K3.31. The data set is described as above. Format: cell-based. The note with it: Homo sapiens. On the procedure: as §2
The test system of data set [5] is K3.3. The description is as above. Format: cell-based. The conditions noted are these: Homo sapiens. On the procedure: as §2
The subject of data set [6] is all cell lines except for ARPE-19 and A2058 (CRL 5803, CCL-205, CRL1440). The experiment in a line: sensitivity to 5-FU, growth monitored with resazurin. The data set is classed as cell-based, human. The conditions noted are these: all cell lines except ARPE-19 and A2058.
Data set [7] relates to BON cell line. In words: 5-FU cytotoxicity screen. The data set is classed as cell-based. The note with it: Homo sapiens, neutral red endpoint after 5-7 days, read-out: concentration required to kill 50% of the cells. On the procedure: Drug Exposure and elimination of BON cell line: The drug 5-FU was dissolved in DMSO at a concentration of 0.5 M, and this stock used to make media with micromolar concentrations of the drug ([…]). Cells plated in 24 or 48 well plates in growth phase were cultured with 5-FU supplemented medium for 1-2 weeks. […] This growth measurement was conducted during exposure and if cells grew or survived, growth was followed in the weeks subsequent to removal of 5-FU.
In initial screening, an endpoint assay of viability was performed with the uptake of neutral red (50 μg/ml for 1 h) after 5-7 days, later studies of the selected cell lines used resazurin to monitor growth, as well as viable cell mass.

In data set [8] the test system is ARPE-19 cells. In words: 5FC sensitivity of cells transfected with CD gene. The conditions noted are these: ARPE-19 transfected with CD gene. Format: cell-based, human. The source says: ARPE-19 and CD Expression. […] The purpose of the screen was to eliminate 5FU-resistant cells with the expectation that it would be difficult to use CD as a kill system in such cells. We conclude that lack of cytotoxicity with CD transgene and 5FC treatment in these cells is, at least in part, due to the insensitivity of these cells to 5FU cytotoxicity. The 5-FC and CD cell suicide safety system may not readily be an effective safety system with ARPE-19 cells.

Data set [9] concerns CRL5816 cells. The experiment in a line: 5FC sensitivity of cells expressing WT-CD transgene. Format: cell-based. The conditions noted are these: Homo sapiens.
For data set [10], the system named is human kidney cells 293 cells. The data set is described as above. Format: cell-based. The note with it: HEK293, 293 cells expressing WT-CD transgene.
For data set [11], the system named is human colon tumor cells. The data set is described as above. Format: cell-based.
The test system of data set [12] is HT1080 cells (CD clone). The experiment in a line: 5FC sensitivity of cells expressing WT CD gene. The data set is classed as cell-based, human. The source says:
HT1080 cells and CD Expression, The HT1080 cell line was obtained from the ATCC and transfected with the WT CD gene of the present invention. A clone was isolated that had high expression of immunoreactive CD. […] This represents toxicity at about 100-fold lower concentrations of 5FC than achieved by others with HT1080 cells (Dachs, et al., Nature Medicine 3:515-20, 1997).

The test system of data set [13] is CRL1440 polyclones. The experiment in a line: Zeocin dose-response of growth in BBP-transfected polyclones.
Protocol: (§5) In an effort to address this issue we used plasmids we had constructed that used either of three viral promoter/enhancers: CMV, SV40, or RSV. These viral regulatory elements were used to direct the expression of the selectable marker for Zeocin, a bleomycin binding protein (BBP) that inactivates the drug by binding, rather than enzymatic degradation. The resistant colonies produced by these transfections were grown as polyclones for each different promoter.
Polyclones were expanded in 300 μg/ml Zeocin for SV40 and CMV promoter plasmids, and then plated to determine IC50s for growth at varied Zeocin doses.
In data set [14] the test system is CRL 5803 polyclones.
Protocol: as §5
Data set [15] deals with CCL205 polyclone. The conditions noted are these: CMV promoter polyclone.
Protocol: as §5
The growth of CCL205 cells was slow enough that for IC50 calculations the final viable mass was used rather than growth.
For data set [16], the system named is ARPE-19 polyclone. The experiment in a line: Zeocin dose-response of growth in BBP-transfected polyclones. Format: cell-based, human.
The subject of data set [17] is CRL5803. Format: cell-based, human. On the procedure: (§3) The cell lines were plated in 48 well plates at an appropriate dilution of cells for each cell line to provide for rapid entry into log phase of growth. The various concentrations of the selection drugs were added so that the drugs were present at the initiation of log phase growth and viable cells were determined after 7-10 days of culture. The screening used data for functional mass at the end of the study to express viable cells as a percentage of the vehicle, or no-treatment control wells. […] The % viable cell mass data was plotted, and fitted typically with a four-parameter equation. The fitted equation was used to calculate the IC50 dose. The drugs tested were G418 (inactivated by neomycin phophotransferase, NPT), hygromycin (inactivated by hygromycin phosphotansferse, HPT), blasticidin (inactivated by blasticidin deaminase, BSD), and zeocin (bound by bleomycin binding protein, BBP). These antibiotics were obtained from Invitrogen/Gibco (Invitrogen SA, Barcelona).
(§4) The drugs, G418, Zeocin, hygromycin, and blasticidin were obtained and used as described earlier. The most important aspect of these studies was to identify the concentration needed to kill all non-transfected cells.

Data set [18] deals with ARPE-19. The data set is classed as cell-based, human. As to the method: as §3, §4
Data set [19] concerns CRL1440. Format: cell-based, human. On the procedure: as §3, §4
Data set [20] has as its system CCL205. Format: cell-based, human. As to the method:
as §3, §4

Each structure is given as a SMILES string. Like-named read-outs stand apart in the source and are kept apart here.

Consider `O=c1[nH]cc(F)c(=O)[nH]1` [5-FU, 5-fluorouracil], for which, in [1], the “5-FU concentrations that slowed growth” value was above 5 µM; the “5-FU doses with killing and growth arrest” value was above 10 µM; the “doubling time after 5-FU exposure” value worked out at 60 h; the “lethal dose of 5-FU” value came to 500 µM. Also, in [1] (ARPE-19, 2 weeks of exposure), the “effect of 100 μM 5-FU” value is “not a lethal dose”. For the same compound, in data set [2], the “5-FU concentration at which killing began” value is above 500 µM, the “5-FU concentration that did not affect the cell line” value was below 10 µM and the “5-FU concentrations with dominantly cytostatic response” value was in the range of 10 to 100 µM. Also, in [3] (read-out: IC50 for 5-FU), the IC50 was found to be 8.5 ± 0.3 µM. Besides, in [4] (K3.31, read-out: IC50 for 5FU), the IC50 stood at 9 ± 1 µM. Further, in [5] (K3.3, read-out: IC50 for 5FU), the IC50 was determined as 5 ± 1 µM. The concentration of 5-FU that resulted in 50% killing in data set [6] was below 35 µM. Further, the IC50 in data set [7] was at least 500 µM.
Take `Nc1nc(=O)[nH]cc1F` [5FC, 5-fluorocytosine]: the “sensitivity of CD-transfected clones to 5FC” value in data set [8] was “unable to isolate clones that were sensitive to 5FC”. Further, the IC50 is 48 µM in data set [9]; 67 ± 8 µM in data set [3] (independent second transfection with the CD gene, read-out: 5FC IC50); 79 ± 9 µM in data set [3] (one of the transfections with the CD gene, read-out: 5FC IC50); 21 ± 2 µM in [4] (K3.31 transfected with CD gene, read-out: 5FC IC50); 14 ± 2 µM in data set [5] (K3.3 transfected with CD gene, read-out: 5FC IC50); 55 µM in [10]. Also, the IC50 in data set [11] was found to be 45 µM; in data set [12] (Homo sapiens, HT-1080, HT1080 clone with high expression of immunoreactive CD, dominantly growth arrest), 110 µM. Moreover, the “fold lower toxic concentration of 5FC than achieved by others with HT1080 cells” value in [12] (versus Dachs et al. 1997) is “about 100 fold”.
Take `Cc1c(N)nc([C@H](CC(N)=O)NC[C@H](N)C(N)=O)nc1C(=O)N[C@H](C(=O)N[C@H](C)[C@@H](O)[C@H](C)C(=O)N[C@H](C(=O)NCCC1=N[C@@H](c2nc(C(=O)NCCCCN=C(N)N)cs2)CS1)[C@@H](C)O)[C@@H](O[C@@H]1O[C@@H](CO)[C@@H](O)[C@H](O)[C@@H]1O[C@H]1O[C@H](CO)[C@@H](O)[C@H](OC(N)=O)[C@@H]1O)c1cnc[nH]1` [Zeocin]: the “IC50 for growth in Zeocin” value was determined as 2395 µg/mL in [13] (CMV plasmids), 959 µg/mL in data set [13] (SV40 promoter plasmid) and 399 µg/mL in [16] (CMV promoter-BBP polyclone). Moreover, the “growth IC50 in Zeocin” value in [14] (CRL 5803, CMV promoter-BBP) amounted to 2700 µg/mL; in data set [14] (CRL 5803, RSV promoter-BBP) it was 2400 µg/mL; in data set [14] (CRL 5803, SV40 promoter plasmid), 2800 µg/mL. The “increase in the growth IC50” value in data set [14] (CRL 5803, all promoters) is on record as around 5 fold. The “doses at which cytotoxicity was evident” value in [14] (CRL 5803 CMV promoter polyclone, dose range extended to 5000 μg/ml) is above 3000 µg/mL. The “IC50 for Zeocin (final viable mass)” value in [15] stood at 27 µg/mL. In data set [16] (CMV promoter), the “shift in resistance compared to cells with no Zeocin-resistance gene” value is reported as around 8 fold. The “concentration found to kill non-transfected cells” value in data set [17] was 500 µg/mL; in data set [18] it was 50 µg/mL; in data set [19], 100 µg/mL; in data set [20], below 20 µg/mL.
